For assay [1], the system named is C. formosanus. Conditions: baits containing the termiticide; cited from earlier work.
For assay [2], the system named is Formosan subterranean termites. As to the kind of experiment: two choice feeding experiment: blank bait matrix vs. matrix with neutral red and urea. It counts as in vivo, Coptotermes formosanus. As to conditions: urea 0-1280 ppm added to matrix with 1,000 ppm neutral red; groups of 300 termites; 30 d; FIG. 1. Here is the method: (§1) The basic formulation of the matrix was prepared the same day that the experiment was set up, as reported by Rojas et al. (U.S. patent application Ser. Nos. 09/294,499 and 09/625,940, ibid). The colorant used was neutral red (Product number 72210, Fluka Chemical Corp., Milwaukee, Wis.) at 1000 ppm.
Under a laminar flow hood, the sterile cellulose was weighed using a Oahus portable plus scale (Fisher Scientific, Pittsburgh, Pa.) into a sterile 600 ml glass beaker. The colorant was weighed using a Mettler Toledo balance (PB303, Fisher Scientific, Pittsburgh, Pa.) and added to the pre-weighed cellulose. The cellulose with the colorant were homogenized using a sterile stainless steel spatula.
The sterile liquid mixture was measured into a 50 ml sterile screw cap conical tube (Product number 62.547.004 PP, Sarstedt, Inc., Newton, N.C.) and the urea was added at each of the following doses: 0, 10, 20, 40, 80, 160, 320, 640, and 1280 ppm; then it was added to the colored cellulose to a 7:3 ratio, (liquid-urea:colored-cellulose) and mixed to homogenize. […]
One treatment dish and one control dish were placed in the center of the top dish, taking care that the holes were facing each other and at least 1 cm apart. […] Matrix consumption was measured 30 d after by removing the left over bait matrix from the dishes and weighed it using a Sartorius balance (BP 211D, VWR Scientific, Atlanta, Ga.). […]

The subject of assay [3] is Formosan termite. The assay can be described thus: choice test of the colorant (feeding deterrence). It counts as in vivo, Coptotermes formosanus. Conditions: neutral red at 1000 ppm in bait matrix. How it is done:
as §1

`O=C(NC(=O)c1c(F)cccc1F)Nc1ccc(Cl)cc1` [diflubenzuron]: the “suppression of large colonies” value in assay [1] is given as “particularly effective”. For the compound `O=C(NC(=O)c1c(F)cccc1F)Nc1cc(Cl)c(OC(F)(F)C(F)F)c(Cl)c1` [hexaflumuron], in assay [1], the “suppression of large colonies” value was “particularly effective”. With `NC(N)=O` [urea], in assay [2], the “effect of urea on feeding deterrence induced by the colorant (consumption difference, control minus colored matrix)” value is on record as “significantly affected the feeding deterrence induced by the colorant”. Take `Cc1cc2nc3ccc(N(C)C)cc3nc2cc1N.Cl` [neutral red]: in assay [3], the “feeding deterrence to the Formosan termite” value is recorded as “moderately deterrent”.

These data come from US20030104024A1, “Urea and nitrogen based compounds as feeding stimulants/aggregants and masking agents of unpalatable chemicals for subterranean termites” (priority 2000, published 2003).
